Experimental data from patent US8044044B2, “4-(1-amino-ethyl)-cyclohexylamine derivatives” (Actelion Pharmaceutical Ltd., priority 2006, dated 2011).
Converted amounts (≈) assume the structure as drawn.

What was measured:
S. aureus A798 = experiment: MIC by broth microdilution (NCCLS), S. aureus A798; format: cell-based, Staphylococcus aureus; conditions: strain A798, cation-adjusted Mueller-Hinton Broth, pH 7.2-7.3; for MIC: Staphylococcus aureus
Experimental: (§1) These assays have been performed following the description given in “Methods for dilution Antimicrobial Susceptibility Tests for Bacteria that Grow Aerobically, 4th ed.; Approved standard: NCCLS Document M7-A4; National Committee for Clinical Laboratory Standards: Villanova, Pa., USA, 1997”. Minimal inhibitory concentrations (MICs; mg/l) were determined in cation-adjusted Mueller-Hinton Broth (BBL) by a microdilution method following NCCLS guidelines (National Committee for Clinical Laboratory Standards. Methods for Dilution Antimicrobial Susceptibility). The pH of the test medium was 7.2-7.3.

A. baumanii T6474 = experiment: MIC by broth microdilution (NCCLS), A. baumanii T6474; format: cell-based, Acetinobacter baumannii; conditions: strain T6474, cation-adjusted Mueller-Hinton Broth, pH 7.2-7.3; for MIC: Acinetobacter baumannii
Experimental: as §1

P. aeruginosa A1124 = experiment: MIC by broth microdilution (NCCLS), P. aeruginosa A1124; format: cell-based, Pseudomonas aeruginosa; conditions: strain A1124, cation-adjusted Mueller-Hinton Broth, pH 7.2-7.3; for MIC: Pseudomonas aeruginosa
Experimental: as §1

Compound: COc1ccc2nccc(CC(N)[C@H]3CC[C@H](NCC=Cc4cc(F)ccc4F)CC3)c2n1 (mixture of isomers) [Example 4, trans-{4-[(1RS)-1-amino-2-(6-methoxy-[1,5]naphthyridin-4-yl)-ethyl]-cyclohexyl}-[3-(2,5-difluoro-phenyl)-allyl]-amine]
- MIC (S. aureus A798; second table, all Examples): 0.063 µg/mL (≈ 0.139 µM)

Compound: COC(=O)c1ccc(CC(N)[C@H]2CC[C@H](NC/C=C/c3cc(F)ccc3F)CC2)c2nc(OC)ccc12 (mixture of isomers) [Example 5, 8-[(2RS)-2-amino-2-trans-{4-[(E)-3-(2,5-difluoro-phenyl)-allylamino]-cyclohexyl}-ethyl]-2-methoxy-quinoline-5-carboxylic acid methyl ester]
- MIC S. aureus A798 (S. aureus A798; second table, all Examples): 0.125 µg/mL (≈ 0.245 µM)

Compound: COc1ccc2c(CO)ccc(CC(N)[C@H]3CC[C@H](NC/C=C/c4cc(F)ccc4F)CC3)c2n1 (mixture of isomers) [Example 6, [8-((2RS)-2-amino-2-trans-{4-[3-(E)-(2,5-difluoro-phenyl)-allylamino]-cyclohexyl}-ethyl)-2-methoxy-quinolin-5-yl]-methanol]
- MIC A. baumanii T6474 (A. baumanii T6474): 16 µg/mL (≈ 33.2 µM)
- MIC S. aureus A798 (S. aureus A798; second table, all Examples): 0.125 µg/mL (≈ 0.26 µM)
- MIC S. aureus A798 (S. aureus A798; table of typical results): 0.125 µg/mL (≈ 0.26 µM)
- MIC P. aeruginosa A1124 (P. aeruginosa A1124): 0.5 µg/mL (≈ 1.04 µM)

Compound: COc1cnc2cccc(CC(N)[C@H]3CC[C@H](NCc4ccc5c(n4)NC(=O)CS5)CC3)c2n1 (mixture of isomers) [Example 7, 6-(trans-{4-[(1RS)-1-amino-2-(3-methoxy-quinoxalin-5-yl)-ethyl]-cyclohexylamino}-methyl)-4H-pyrido[3,2-b][1,4]thiazin-3-one]
- MIC (S. aureus A798; second table, all Examples): 0.063 µg/mL (≈ 0.132 µM)

Compound: COc1cnc2cccc(CC(N)[C@H]3CC[C@@H](NCc4ccc5c(n4)NC(=O)CS5)CC3)c2n1 (mixture of isomers) [Example 8, 6-(cis-{4-[(1RS)-1-amino-2-(3-methoxy-quinoxalin-5-yl)-ethyl]-cyclohexylamino}-methyl)-4H-pyrido[3,2-b][1,4]thiazin-3-one]
- MIC (S. aureus A798; second table, all Examples): 1 µg/mL (≈ 2.09 µM)

Compound: COc1ccc2nccc(CC(N)[C@H]3CC[C@H](NCc4ccc5c(n4)NC(=O)CO5)CC3)c2n1 (mixture of isomers) [Example 9, 6-(trans-{4-[(1RS)-1-amino-2-(6-methoxy-[1,5]naphthyridin-4-yl)-ethyl]-cyclohexylamino}-methyl)-4H-pyrido[3,2-b][1,4]oxazin-3-one]
- MIC (S. aureus A798; second table, all Examples): 0.5 µg/mL (≈ 1.08 µM)

Compound: COc1ccc2ncc(F)c(CC(N)[C@H]3CC[C@H](NCc4ccc5c(n4)NC(=O)CS5)CC3)c2c1 (mixture of isomers) [Example 10, trans-6-({4-[(1RS)-1-amino-2-(3-fluoro-6-methoxy-quinolin-4-yl)-ethyl]-cyclohexylamino}-methyl)-4H-pyrido[3,2-b][1,4]thiazin-3-one]
- MIC (S. aureus A798; second table, all Examples): 0.031 µg/mL (≈ 0.0625 µM)

Compound: COc1ccc2ncc(F)c(CC(N)[C@H]3CC[C@@H](NCc4ccc5c(n4)NC(=O)CS5)CC3)c2c1 (mixture of isomers) [Example 11, cis-6-({4-[(1RS)-1-amino-2-(3-fluoro-6-methoxy-quinolin-4-yl)-ethyl]-cyclohexylamino}-methyl)-4H-pyrido[3,2-b][1,4]thiazin-3-one]
- MIC (A. baumanii T6474): 4 µg/mL (≈ 8.07 µM)
- MIC (S. aureus A798; table of typical results): 0.5 µg/mL (≈ 1.01 µM)
- MIC S. aureus A798 (S. aureus A798; second table, all Examples): 0.5 µg/mL (≈ 1.01 µM)
- MIC (P. aeruginosa A1124): 0.125 µg/mL (≈ 0.252 µM)

Compound: COc1ccc2ncc(F)c(CC(N)[C@H]3CC[C@H](NC/C=C/c4cc(F)ccc4F)CC3)c2c1 (mixture of isomers) [Example 12, trans-{4-[(1RS)-1-amino-2-(3-fluoro-6-methoxy-quinolin-4-yl)-ethyl]-cyclohexyl}-[3-(E)-(2,5-difluoro-phenyl)-allyl]-amine]
- MIC (S. aureus A798; second table, all Examples): ≤ 0.031 µg/mL

Compound: COc1ccc2ncc(F)c(CC(N)[C@H]3CC[C@@H](NC/C=C/c4cc(F)ccc4F)CC3)c2c1 (mixture of isomers) [Example 13, cis-{4-[(1RS)-1-amino-2-(3-fluoro-6-methoxy-quinolin-4-yl)-ethyl]-cyclohexyl}-[3-(E)-(2,5-difluoro-phenyl)-allyl]-amine]
- MIC (S. aureus A798; second table, all Examples): 0.063 µg/mL (≈ 0.134 µM)

Compound: COc1ccc2ncc(F)c(CC(N)[C@H]3CC[C@H](NCc4ccc5c(n4)NC(=O)CS5)CC3)c2n1 (mixture of isomers) [Example 14, trans-6-({4-[(1RS)-1-amino-2-(3-fluoro-6-methoxy-[1,5]naphthyridin-4-yl)-ethyl]-cyclohexylamino}-methyl)-4H-pyrido[3,2-b][1,4]thiazin-3-one]
- MIC (S. aureus A798; second table, all Examples): ≤ 0.031 µg/mL

Compound: COc1ccc2ncc(F)c(CC(N)[C@H]3CC[C@@H](NCc4ccc5c(n4)NC(=O)CS5)CC3)c2n1 (mixture of isomers) [Example 15, cis-6-({4-[(1RS)-1-amino-2-(3-fluoro-6-methoxy-[1,5]naphthyridin-4-yl)-ethyl]-cyclohexylamino}-methyl)-4H-pyrido[3,2-b][1,4]thiazin-3-one]
- MIC (S. aureus A798; second table, all Examples): 0.25 µg/mL (≈ 0.503 µM)

Compound: COc1ccc2ncc(F)c(CC(N)[C@H]3CC[C@H](NCc4ccc5c(c4)NC(=O)CO5)CC3)c2c1 (mixture of isomers) [Example 16, trans-6-({4-[(1RS)-1-amino-2-(3-fluoro-6-methoxy-quinolin-4-yl)-ethyl]-cyclohexylamino}-methyl)-4H-benzo[1,4]oxazin-3-one]
- MIC (S. aureus A798; second table, all Examples): 0.063 µg/mL (≈ 0.132 µM)

Compound: COc1ccc2nccc(CC(N)[C@H]3CC[C@H](NCc4ccc5c(c4)NC(=O)CO5)CC3)c2c1 (mixture of isomers) [Example 19, trans-6-({4-[(1RS)-1-amino-2-(6-methoxy-quinolin-4-yl)-ethyl]-cyclohexylamino}-methyl)-4H-benzo[1,4]oxazin-3-one]
- MIC (S. aureus A798; second table, all Examples): 1 µg/mL (≈ 2.17 µM)

Compound: COc1ccc2nccc(CC(N)[C@H]3CC[C@H](NCc4ccc5c(n4)NC(=O)CS5)CC3)c2c1 (mixture of isomers) [Example 20, trans-6-({4-[(1RS)-amino-2-(6-methoxy-quinolin-4-yl)-ethyl]-cyclohexylamino}-methyl)-4H-pyrido[3,2-b][1,4]thiazin-3-one]
- MIC S. aureus A798 (S. aureus A798; second table, all Examples): 0.125 µg/mL (≈ 0.262 µM)

Compound: COc1ccc2nccc(CC(N)[C@H]3CC[C@H](NCc4ccc5c(n4)NC(=O)CO5)CC3)c2c1 (mixture of isomers) [Example 21, trans-6-({4-[(1RS)-amino-2-(6-methoxy-quinolin-4-yl)-ethyl]-cyclohexylamino}-methyl)-4H-pyrido[3,2-b][1,4]oxazin-3-one]
- MIC S. aureus A798 (S. aureus A798; second table, all Examples): 0.5 µg/mL (≈ 1.08 µM)

Compound: COc1ccc2nccc([C@@H](O)[C@H](N)[C@H]3CC[C@H](NCc4ccc5c(n4)NC(=O)CS5)CC3)c2n1 (relative stereo) [Example 3, 6-(trans-{4-[(1R*,2R*)-1-amino-2-hydroxy-2-(6-methoxy-[1,5]naphthyridin-4-yl)-ethyl]-cyclohexylamino}-methyl)-4H-pyrido[3,2-b][1,4]thiazin-3-one]
- MIC (S. aureus A798; second table, all Examples): 0.125 µg/mL (≈ 0.253 µM)

Compound: COc1ccc2nccc([C@@H](O)[C@H](N)[C@H]3CC[C@H](NCc4ccc5c(c4)OCCO5)CC3)c2n1 (relative stereo) [Example 17, trans-(1R*,2R*)-2-amino-2-{4-[(2,3-dihydro-benzo[1,4]dioxin-6-ylmethyl)-amino]-cyclohexyl}-1-(6-methoxy-[1,5]naphthyridin-4-yl)-ethanol]
- MIC (A. baumanii T6474): 16 µg/mL (≈ 34.4 µM)
- MIC (S. aureus A798; table of typical results): 0.063 µg/mL (≈ 0.136 µM)
- MIC S. aureus A798 (S. aureus A798; second table, all Examples): 0.063 µg/mL (≈ 0.136 µM)
- MIC (P. aeruginosa A1124): 2 µg/mL (≈ 4.31 µM)

Compound: COc1ccc2nccc([C@@H](O)[C@H](N)[C@H]3CC[C@H](NC/C=C/c4cc(F)ccc4F)CC3)c2n1 (relative stereo) [Example 18, trans-(1R*,2R*)-2-amino-2-{4-[(E)-3-(2,5-difluoro-phenyl)-allylamino]-cyclohexyl}-1-(6-methoxy-[1,5]naphthyridin-4-yl)-ethanol]
- MIC (S. aureus A798; second table, all Examples): ≤ 0.031 µg/mL

Compound: COc1ccc2nccc(C[C@@H](N)[C@H]3CC[C@H](NCc4ccc5c(n4)NC(=O)CS5)CC3)c2n1 [Example 1, 6-(trans-{4-[(1R)-1-amino-2-(6-methoxy-[1,5]naphthyridin-4-yl)-ethyl]-cyclohexylamino}-methyl)-4H-pyrido[3,2-b][1,4]thiazin-3-one]
- MIC (A. baumanii T6474): 32 µg/mL (≈ 66.9 µM)
- MIC (S. aureus A798; table of typical results): 4 µg/mL (≈ 8.36 µM)
- MIC S. aureus A798 (S. aureus A798; second table, all Examples): 4 µg/mL (≈ 8.36 µM)
- MIC (P. aeruginosa A1124): 0.063 µg/mL (≈ 0.132 µM)

Compound: COc1ccc2nccc(C[C@H](N)[C@H]3CC[C@H](NCc4ccc5c(n4)NC(=O)CS5)CC3)c2n1 [Example 2, 6-(trans-{4-[(1S)-1-amino-2-(6-methoxy-[1,5]naphthyridin-4-yl)-ethyl]-cyclohexylamino}-methyl)-4H-pyrido[3,2-b][1,4]thiazin-3-one]
- MIC (S. aureus A798; second table, all Examples): 0.125 µg/mL (≈ 0.261 µM)
